Tests used:
[1] = molecular target: T1, recombinant human FLAP protein (Homo sapiens, UniProt P20292); experiment: FLAP binding assay (SPA, displacement of [125I]L-691,831); settings: membranes of sf9 cells expressing recombinant human FLAP; [125I]L-691,831 probe; read-out: FLAP binding IC50
T1 construct: made in house; host or cells: Sf9 insect cells (100,000×g membrane pellet used)
T1 sequence (P20292 1-161): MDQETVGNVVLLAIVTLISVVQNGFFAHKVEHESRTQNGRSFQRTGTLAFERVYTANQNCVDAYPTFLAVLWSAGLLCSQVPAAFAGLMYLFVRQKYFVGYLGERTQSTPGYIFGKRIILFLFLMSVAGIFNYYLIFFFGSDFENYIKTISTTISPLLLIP
How it was run: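 Membranes from sf9 cells expressing human FLAP in pH 7.5 Tris buffer (MgCl2, EDTA, PMSF). Non-specific binding defined with 10 μM cold L-691,831.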

[2] = tested on: synthesis of LTB4 in human whole blood; experiment: Human whole blood assay (inhibition of LTB4 synthesis, calcimycin stimulated); assay type: cell-based; settings: heparinized human whole blood, calcimycin 20 μM, plasma LTB4
How it was run: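 LTB4 levels in plasma were measured by antibody-based HTRF after heparinized human whole blood, pretreated with compound (15 min, 37° C), was challenged with 20 μM calcimycin for 30 min at 37° C.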

Structure (SMILES) | IC50 [1] [nM] | IC50 [2] [nM]
CNC(=O)Cn1cc(-c2nc([C@](C)(c3ccc(-c4cnc(N)nc4)cc3)C3CC3)no2)cn1 [Example 231, 2-[4-(3-{(S)-1-[4-(2-Amino-pyrimidin-5-yl)-phenyl]-1-cyclopropyl-ethyl}-[1,2,4]oxadiazol-5-yl)-pyrazol-1-yl]-N-methyl-acetamide] | 120 | 700
COCCc1nc(C(C)(c2ccc(-c3cnc(N)nc3)cc2)C(C)C)no1 (stereo not shown) [Example 232, 5-(4-{1-[5-(2-Methoxy-ethyl)-[1,2,4]oxadiazol-3-yl]-1,2-dimethyl-propyl}-phenyl)-pyrimidin-2-ylamine] | 37 | 370
CC(C)C(C)(c1ccc(-c2cnc(N)nc2)cc1)c1noc(N2C3CCC2CC(O)C3)n1 (stereo not shown) [Example 235, 8-(3-{1-[4-(2-Amino-pyrimidin-5-yl)-phenyl]-1,2-dimethyl-propyl}-[1,2,4]oxadiazol-5-yl)-8-aza-bicyclo[3.2.1]octan-3-ol] | 29 | 780
CC(C)C(C)(c1ccc(-c2cnc(N)nc2)cc1)c1noc(NC2CCN(C)CC2)n1 (stereo not shown) [Example 236, 5-(4-{1,2-Dimethyl-1-[5-(1-methyl-piperidin-4-ylamino)-[1,2,4]oxadiazol-3-yl]-propyl}-phenyl)-pyrimidin-2-ylamine] | 89 | 1300
CC(C)C(C)(c1ccc(-c2cnc(N)nc2)cc1)c1noc(NC2CCC(O)CC2)n1 (stereo not shown) [Example 237, 4-(3-{1-[4-(2-Amino-pyrimidin-5-yl)-phenyl]-1,2-dimethyl-propyl}-[1,2,4]oxadiazol-5-ylamino)-cyclohexanol] | 26 | 470
Cc1nc(N)ncc1-c1ccc(C(C)(c2noc(-c3cnn(CC(=O)N(C)C)c3)n2)C2CC2)cc1 (stereo not shown) [Example 240, 2-[4-(3-{1-[4-(2-Amino-4-methyl-pyrimidin-5-yl)-phenyl]-1-cyclopropyl-ethyl}-[1,2,4]oxadiazol-5-yl)-pyrazol-1-yl]-N,N-dimethyl-acetamide] | 15 | 190
CN(C)C(=O)Cn1cc(-c2nc(C(C)(c3ccc(-c4cnc(N)c(F)c4)cc3)C3CC3)no2)cn1 (stereo not shown) [Example 243, 2-[4-(3-{1-[4-(6-Amino-5-fluoro-pyridin-3-yl)-phenyl]-1-cyclopropyl-ethyl}-[1 ,2,4]oxadiazol-5-yl)-pyrazol-1-yl]-N,N-dimethyl-acetamide] | 12 | 170
Cc1nc(N)ccc1-c1ccc(C(C)(c2noc(-c3cnn(CC(=O)N(C)C)c3)n2)C2CC2)cc1 (stereo not shown) [Example 244, 2-[4-(3-{1-[4-(6-Amino-2-methyl-pyridin-3-yl)-phenyl]-1-cyclopropyl-ethyl}-[1,2,4]oxadiazol-5-yl)-pyrazol-1-yl]-N,N-dimethyl-acetamide] | 25 | 270
Cc1nc(N)cnc1-c1ccc(C(C)(c2noc(-c3cnn(CC(=O)N(C)C)c3)n2)C2CC2)cc1 (stereo not shown) [Example 245, 2-[4-(3-{1-[4-(5-Amino-3-methyl-pyrazin-2-yl)-phenyl]-1-cyclopropyl-ethyl}-[1,2,4]oxadiazol-5-yl)-pyrazol-1-yl]-N,N-dimethyl-acetamide] | 28 | 310
CN(C)C(=O)Cn1cc(-c2nc(C(C)(c3ccc(-c4cnc(N)c(C(F)(F)F)c4)cc3)C3CC3)no2)cn1 (stereo not shown) [Example 246, 2-[4-(3-{1-[4-(6-Amino-5-trifluoromethyl-pyridin-3-yl)-phenyl]-1-cyclopropyl-ethyl}-[1,2,4]oxadiazol-5-yl)-pyrazol-1-yl]-N,N-dimethyl-acetamide] | 19 | 430
CCNc1ncc(-c2ccc(C(C)(c3noc(-c4cnn(CC(=O)N(C)C)c4)n3)C3CC3)cc2)cn1 (stereo not shown) [Example 249, 2-[4-(3-{1-Cyclopropyl-1-[4-(2-ethylamino-pyrimidin-5-yl)-phenyl]-ethyl}-[1,2,4]oxadiazol-5-yl)-pyrazol-1-yl]-N,N-dimethyl-acetamide] | 370 | > 5000
CN(C)C(=O)Cn1cc(-c2nc(C(C)(c3ccc(-c4cnc(NC5CC5)nc4)cc3)C3CC3)no2)cn1 (stereo not shown) [Example 250, 2-[4-(3-{1-Cyclopropyl-1-[4-(2-cyclopropylamino-pyrimidin-5-yl)-phenyl]-ethyl}[1,2,4]oxadiazol-5-yl)-pyrazol-1-yl]-N,N-dimethyl-acetamide] | 470 | > 5000
CC(c1ccc(-c2cnc(N)nc2)cc1)(c1noc(N2CCN(CCO)CC2)n1)C1CC1 (stereo not shown) [Example 252, 2-[4-(3-{1-[4-(2-Amino-pyrimidin-5-yl)-phenyl]-1-cyclopropyl-ethyl}-[1,2,4]oxadiazol-5-yl)-piperazin-1-yl]-ethanol] | 15 | 220
CN(C)C(=O)Cn1cc(-c2nc([C@](C)(c3ccc(-c4cnc5c(c4)OCCN5)cc3)C3CC3)no2)cn1 [Example 255, 2-[4-(3-{(S)-1-Cyclopropyl-1-[4-(3,4-dihydro-2H-pyrido[3,2-b][1,4]oxazin-7-yl)-phenyl]-ethyl}-[1,2,4]oxadiazol-5-yl)-pyrazol-1-yl]-N,N-dimethyl-acetamide] | 15 | 1800
Cc1nc(N)ncc1-c1ccc([C@@](C)(c2noc(-c3cnn(CC(=O)N(C)C)c3)n2)C2CC2)cc1 [Example 258, 2-[4-(3-{(S)-1-[4-(2-Amino-4-methyl-pyrimidin-5-yl)-phenyl]-1-cyclopropyl-ethyl}-[1,2,4]oxadiazol-5-yl)-pyrazol-1-yl]-N,N-dimethyl-acetamide] | 430 | 2300

The next compounds have a lower IC50 [1] than those just listed; values first:

IC50 [1] [nM] | IC50 [2] [nM] | Structure (SMILES)
10 | 80 | CC(c1ccc(-c2ccc(N)nc2)cc1)(c1noc(N2CCC(O)CC2)n1)C1CC1 (stereo not shown) [Example 248, 1-(3-{1-[4-(6-Amino-pyridin-3-yl)-phenyl]-1-cyclopropyl-ethyl}-[1,2,4]oxadiazol-5-yl)-piperidin-4-ol]
9.1 | 130 | CNc1ccc(-c2ccc(C(C)(c3noc(-c4cnn(CC(=O)N(C)C)c4)n3)C3CC3)cc2)cn1 (stereo not shown) [Example 251, 2-[4-(3-{1-Cyclopropyl-1-[4-(6-methylamino-pyridin-3-yl)-phenyl]-ethyl}-[1,2,4]oxadiazol-5-yl)-pyrazol-1-yl]-N,N-dimethyl-acetamide]
7.3 | 150 | Cc1nc(N)ncc1-c1ccc([C@](C)(c2noc(-c3cnn(CC(=O)N(C)C)c3)n2)C2CC2)cc1 [Example 257, 2-[4-(3-{(R)-1-[4-(2-Amino-4-methyl-pyrimidin-5-yl)-phenyl]-1-cyclopropyl-ethyl}-[1,2,4]oxadiazol-5-yl)-pyrazol-1-yl]-N,N-dimethyl-acetamide]
5.9 | 300 | CN(C)C(=O)Cn1cc(-c2nc(C(C)(c3ccc(-c4cnc5[nH]ccc5n4)cc3)C3CC3)no2)cn1 (stereo not shown) [Example 247, 2-[4-(3-{1-Cyclopropyl-1-[4-(5H-pyrrolo[2,3-b]pyrazin-2-yl)-phenyl]-ethyl}-[1,2,4]oxadiazol-5-yl)-pyrazol-1-yl]-N,N-dimethyl-acetamide]
5.7 | 310 | CN(C)C(=O)Cn1cc(-c2nc(C(C)(c3ccc(-c4cnc5[nH]ccc5c4)cc3)C3CC3)no2)cn1 (stereo not shown) [Example 242, 2-[4-(3-{1-Cyclopropyl-1-[4-(1H-pyrrolo[2,3-b]pyridin-5-yl)-phenyl]-ethyl}-[1,2,4]oxadiazol-5-yl)-pyrazol-1-yl]-N,N-dimethyl-acetamide]
5 | 29 | CC1(O)CCN(c2nc(C(C)(c3ccc(-c4cnc(N)nc4)cc3)C3CC3)no2)CC1 (stereo not shown) [Example 238, 1-(3-{1-[4-(2-Amino-pyrimidin-5-yl)-phenyl]-1-cyclopropyl-ethyl}-[1,2,4]oxadiazol-5-yl)-4-methyl-piperidin-4-ol]
4.5 | 51 | Cn1cc(-c2nc(C(C)(c3ccc(-c4cnc5c(c4)CCN5)cc3)C3CC3)no2)cn1 (stereo not shown) [Example 256, 5-(4-{1-Cyclopropyl-1-[5-(1-methyl-1H-pyrazol-4-yl)-[1,2,4]oxadiazol-3-yl]-ethyl}-phenyl)-2,3-dihydro-1H-pyrrolo[2,3-b]pyridine]
4.1 | 290 | CN(C)C(=O)Cn1cc(-c2nc(C(C)(c3ccc(-c4cnc5c(c4)OCCN5)cc3)C3CC3)no2)cn1 (stereo not shown) [Example 239, 2-[4-(3-{1-Cyclopropyl-1-[4-(3,4-dihydro-2H-pyrido[3,2-b][1,4]oxazin-7-yl)-phenyl]-ethyl}-[1,2,4]oxadiazol-5-yl)-pyrazol-1-yl]-N,N-dimethyl-acetamide]
3.8 | 120 | Cn1cc(-c2nc(C(C)(c3ccc(-c4cnc5[nH]ccc5c4)cc3)C3CC3)no2)cn1 (stereo not shown) [Example 253, 5-(4-{1-Cyclopropyl-1-[5-(1-methyl-1H-pyrazol-4-yl)-[1,2,4]oxadiazol-3-yl]-ethyl}-phenyl)-1H-pyrrolo[2,3-b]pyridine]
3.4 | 170 | CN(C)C(=O)Cn1cc(-c2nc(C(C)(c3ccc(-c4cnc5c(c4)CCN5)cc3)C3CC3)no2)cn1 (stereo not shown) [Example 241, 2-[4-(3-{1-Cyclopropyl-1-[4-(2,3-dihydro-1H-pyrrolo[2,3-b]pyridin-5-yl)-phenyl]-ethyl}-[1,2,4]oxadiazol-5-yl)-pyrazol-1-yl]-N,N-dimethyl-acetamide]
2.8 | 210 | CN(C)C(=O)Cn1cc(-c2nc([C@@](C)(c3ccc(-c4cnc5c(c4)OCCN5)cc3)C3CC3)no2)cn1 [Example 254, 2-[4-(3-{(R)-1-Cyclopropyl-1-[4-(3,4-dihydro-2H-pyrido[3,2-b][1,4]oxazin-7-yl)-phenyl]-ethyl}-[1,2,4]oxadiazol-5-yl)-pyrazol-1-yl]-N,N-dimethyl-acetamide]
